In publication PMC8119466, “A screen of FDA-approved drugs identifies inhibitors of protein tyrosine phosphatase 4A3 (PTP4A3 or PRL-3)” (Scientific Reports, 2021):
Structures can show the parent of a compound that is named as a salt. Where two headings read alike, the source gives them in different places.

Assays:
Type in all cases: biochemical
recombinant PRL-2 = target: T1, recombinant PRL-2 (Homo sapiens, UniProt Q12974); assay: In vitro phosphatase assay (DiFMUP hydrolysis), PRL-2;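 further: PRL-2 activity read as DiFMUP hydrolysis after 20 min at room temperature with drug, enzyme first pre-reduced at 4 °C for 20 min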
T1 construct: 6xHis (N, cleaved yes); made in house; host or cells: E. coli One Shot BL21 Star
T1 sequence (Q12974 1-167): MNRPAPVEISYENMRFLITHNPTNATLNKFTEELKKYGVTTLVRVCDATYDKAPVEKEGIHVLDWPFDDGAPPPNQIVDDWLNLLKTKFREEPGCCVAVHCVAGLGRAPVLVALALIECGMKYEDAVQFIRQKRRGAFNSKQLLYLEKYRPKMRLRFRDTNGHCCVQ

recombinant PRL-3 = target: T2, recombinant PRL-3 (Homo sapiens, UniProt O75365); assay: In vitro phosphatase assay (DiFMUP hydrolysis), PRL-3; further: test concentration or dose not given here
T2 construct: 6xHis (N, cleaved yes); made in house; host or cells: E. coli One Shot BL21 Star

recombinant PRL-1 = target: T3, recombinant PRL-1 (Homo sapiens, UniProt Q93096); assay: In vitro phosphatase assay (DiFMUP hydrolysis), PRL-1; further: test concentration or dose not given here
T3 construct: 6xHis (N, cleaved yes); made in house; host or cells: E. coli One Shot BL21 Star
T3 sequence (Q93096 1-173): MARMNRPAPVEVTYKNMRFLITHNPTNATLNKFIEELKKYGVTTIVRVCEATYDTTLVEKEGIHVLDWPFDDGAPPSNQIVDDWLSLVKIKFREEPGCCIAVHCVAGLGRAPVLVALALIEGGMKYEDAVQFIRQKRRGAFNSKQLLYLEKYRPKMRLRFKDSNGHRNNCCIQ

[1] = FDA-approved drug screen, compared to DMSO

T2 sequence (O75365 whole entry): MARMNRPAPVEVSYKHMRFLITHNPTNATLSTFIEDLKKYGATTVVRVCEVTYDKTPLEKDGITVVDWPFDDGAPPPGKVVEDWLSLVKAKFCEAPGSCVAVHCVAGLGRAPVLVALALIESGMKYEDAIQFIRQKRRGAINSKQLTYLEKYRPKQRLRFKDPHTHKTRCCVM

For CC(=O)O[C@H]1Cc2ccccc2N(C(N)=O)c2ccccc21 [Eslicarbazepine Acetate], the “% Phosphatase Activity (compared to DMSO) PRL-2” value (recombinant PRL-2; [1]) was 117%, the “% Phosphatase Activity (compared to DMSO) PRL-3” value (recombinant PRL-3; [1]) was 75% and the “% Phosphatase Activity (compared to DMSO) PRL-1” value (recombinant PRL-1; [1]) was 94%.

With COC(=O)CCc1ccc(OCC(O)CNC(C)C)cc1 (stereo not drawn) [Esmolol HCl] the “% Phosphatase Activity (compared to DMSO) PRL-2” value (recombinant PRL-2; [1]) was 101%, the “% Phosphatase Activity (compared to DMSO) PRL-3” value (recombinant PRL-3; [1]) was 73% and the “% Phosphatase Activity (compared to DMSO) PRL-1” value (recombinant PRL-1; [1]) was 93%.

In the case of COc1ccc2[n-]c([S+]([O-])Cc3ncc(C)c(OC)c3C)nc2c1.COc1ccc2[n-]c([S+]([O-])Cc3ncc(C)c(OC)c3C)nc2c1.[Mg+2] (stereo not drawn) [Esomeprazole Magnesium], the “% Phosphatase Activity (compared to DMSO) PRL-2” value (recombinant PRL-2; [1]) is reported as 88%, the “% Phosphatase Activity (compared to DMSO) PRL-3” value (recombinant PRL-3; [1]) is reported as 93% and the “% Phosphatase Activity (compared to DMSO) PRL-1” value (recombinant PRL-1; [1]) is reported as 84%.

For COc1ccc2[n-]c([S@@+]([O-])Cc3ncc(C)c(OC)c3C)nc2c1.[Na+] [Esomeprazole Sodium], the “% Phosphatase Activity (compared to DMSO) PRL-2” value (recombinant PRL-2; [1]) was 124%, the “% Phosphatase Activity (compared to DMSO) PRL-3” value (recombinant PRL-3; [1]) was 92% and the “% Phosphatase Activity (compared to DMSO) PRL-1” value (recombinant PRL-1; [1]) was 112%.

For C[C@]12CC[C@@H]3c4ccc(OC(=O)c5ccccc5)cc4CC[C@H]3[C@@H]1CC[C@@H]2O [Estradiol Benzoate], the “% Phosphatase Activity (compared to DMSO) PRL-2” value (recombinant PRL-2; [1]) was 117%, the “% Phosphatase Activity (compared to DMSO) PRL-3” value (recombinant PRL-3; [1]) was 91% and the “% Phosphatase Activity (compared to DMSO) PRL-1” value (recombinant PRL-1; [1]) was 110%.

For C[C@]12CC[C@@H]3c4ccc(O)cc4CC[C@H]3[C@@H]1CC[C@@H]2OC(=O)CCC1CCCC1 [Estradiol Cypionate], the “% Phosphatase Activity (compared to DMSO) PRL-2” value (recombinant PRL-2; [1]) was 109%, the “% Phosphatase Activity (compared to DMSO) PRL-3” value (recombinant PRL-3; [1]) was 74% and the “% Phosphatase Activity (compared to DMSO) PRL-1” value (recombinant PRL-1; [1]) was 96%.

In the case of CCCCC(=O)O[C@H]1CC[C@H]2[C@@H]3CCc4cc(O)ccc4[C@H]3CC[C@]12C [Estradiol valerate], the “% Phosphatase Activity (compared to DMSO) PRL-2” value (recombinant PRL-2; [1]) is reported as 99%, the “% Phosphatase Activity (compared to DMSO) PRL-3” value (recombinant PRL-3; [1]) is reported as 85% and the “% Phosphatase Activity (compared to DMSO) PRL-1” value (recombinant PRL-1; [1]) is reported as 103%.

For C[C@]12CC[C@@H]3c4ccc(O)cc4CC[C@H]3[C@@H]1CC[C@@H]2O [Estradiol], the “% Phosphatase Activity (compared to DMSO) PRL-2” value (recombinant PRL-2; [1]) was 113%, the “% Phosphatase Activity (compared to DMSO) PRL-3” value (recombinant PRL-3; [1]) was 84% and the “% Phosphatase Activity (compared to DMSO) PRL-1” value (recombinant PRL-1; [1]) was 92%.

C[C@]12CC[C@@H]3c4ccc(O)cc4CC[C@H]3[C@@H]1C[C@@H](O)[C@@H]2O [Estriol] was tested, and the “% Phosphatase Activity (compared to DMSO) PRL-2” value (recombinant PRL-2; [1]) was 111%, the “% Phosphatase Activity (compared to DMSO) PRL-3” value (recombinant PRL-3; [1]) was 79% and the “% Phosphatase Activity (compared to DMSO) PRL-1” value (recombinant PRL-1; [1]) was 117%.

With C[C@]12CC[C@@H]3c4ccc(O)cc4CC[C@H]3[C@@H]1CCC2=O [Estrone] the “% Phosphatase Activity (compared to DMSO) PRL-2” value (recombinant PRL-2; [1]) was 87%, the “% Phosphatase Activity (compared to DMSO) PRL-3” value (recombinant PRL-3; [1]) was 76% and the “% Phosphatase Activity (compared to DMSO) PRL-1” value (recombinant PRL-1; [1]) was 107%.

For CCOc1ccc2nc3cc(N)ccc3c(N)c2c1 [Ethacridine lactate monohydrate], the “% Phosphatase Activity (compared to DMSO) PRL-2” value (recombinant PRL-2; [1]) was 215%, the “% Phosphatase Activity (compared to DMSO) PRL-3” value (recombinant PRL-3; [1]) was 201% and the “% Phosphatase Activity (compared to DMSO) PRL-1” value (recombinant PRL-1; [1]) was 246%.

CC[C@@H](CO)NCCN[C@@H](CC)CO [Ethambutol HCl] was tested, and the “% Phosphatase Activity (compared to DMSO) PRL-2” value (recombinant PRL-2; [1]) was 111%, the “% Phosphatase Activity (compared to DMSO) PRL-3” value (recombinant PRL-3; [1]) was 93% and the “% Phosphatase Activity (compared to DMSO) PRL-1” value (recombinant PRL-1; [1]) was 99%.

With O=S(=O)(O)c1cc(O)ccc1O [Ethamsylate] the “% Phosphatase Activity (compared to DMSO) PRL-2” value (recombinant PRL-2; [1]) was 99%, the “% Phosphatase Activity (compared to DMSO) PRL-3” value (recombinant PRL-3; [1]) was 71% and the “% Phosphatase Activity (compared to DMSO) PRL-1” value (recombinant PRL-1; [1]) was 96%.

In the case of C#C[C@]1(O)CC[C@H]2[C@@H]3CCc4cc(O)ccc4[C@H]3CC[C@@]21C [Ethinyl Estradiol], the “% Phosphatase Activity (compared to DMSO) PRL-2” value (recombinant PRL-2; [1]) is reported as 99%, the “% Phosphatase Activity (compared to DMSO) PRL-3” value (recombinant PRL-3; [1]) is reported as 75% and the “% Phosphatase Activity (compared to DMSO) PRL-1” value (recombinant PRL-1; [1]) is reported as 99%.

In the case of CCc1cc(C(N)=S)ccn1 [Ethionamide], the “% Phosphatase Activity (compared to DMSO) PRL-2” value (recombinant PRL-2) is reported as 101%, the “% Phosphatase Activity (compared to DMSO) PRL-3” value (recombinant PRL-3) is reported as 91% and the “% Phosphatase Activity (compared to DMSO) PRL-1” value (recombinant PRL-1) is reported as 91%.

In the case of CCC1(C)CC(=O)NC1=O (stereo not drawn) [Ethosuximide], the “% Phosphatase Activity (compared to DMSO) PRL-2” value (recombinant PRL-2; [1]) is reported as 104%, the “% Phosphatase Activity (compared to DMSO) PRL-3” value (recombinant PRL-3; [1]) is reported as 79% and the “% Phosphatase Activity (compared to DMSO) PRL-1” value (recombinant PRL-1; [1]) is reported as 95%.

CCOC(=O)c1ccc(O)cc1 [Ethylparaben] was tested, and the “% Phosphatase Activity (compared to DMSO) PRL-2” value (recombinant PRL-2; [1]) was 100%, the “% Phosphatase Activity (compared to DMSO) PRL-3” value (recombinant PRL-3; [1]) was 92% and the “% Phosphatase Activity (compared to DMSO) PRL-1” value (recombinant PRL-1; [1]) was 105%.
